Laboratory results from US9615577B2, “Herbicidally active cyclic dione compounds, or derivatives therefor, substituted by a phenyl which has an alkynyl-containing substituent” (Syngenta Limited, priority 2012, dated 2017).

Key:
Assay type in all cases: in vivo
[1] = test system: Alopecurus myosuroides (ALOMY); test: Test 1B glasshouse assay for herbicidal activity, pre-emergence; conditions: 480 h, 20 DAA, read-out: percentage phytotoxicity ALOMY
Method: (§1) Seeds of a variety of monocotyledonous and dicotyledonous test plants are sown in standard soil in pots. The plants are cultivated for one day (for pre-emergence) or for about 12 days (range=10-13 days) (for post-emergence) under controlled conditions in a glasshouse (warm climate species at 24/18° C., cool climate species at 20/16° C., both at day/night; 16 hours light; 65% humidity).
(§2) An “instant formulation”, known as the “IF50”, containing 50 g/liter (i.e. 5% w/v) of the “technical” (i.e. unformulated) active ingredient is prepared by dissolving the active ingredient in a mixture of organic solvents and emulsifier, details of which are provided in the Table below. This IF50 is then mixed with a small, variable amount of acetone to aid dissolution, before addition of a 0.2% v/v aqueous solution of the adjuvant X-77 (which is a mixture of alkyl aryl polyoxyethylene glycols and free fatty acids in isopropanol, CAS Registry number 11097-66-8), as the aqueous diluent, to form an aqueous spray solution which contains a predetermined concentration of the active ingredient (which varies depending on the application rate of the active ingredient to the plants) and 0.2% v/v of the adjuvant X-77. This aqueous spray solution is then sprayed onto the plants, after one day's cultivation (for pre-emergence) or after about 12 days' cultivation (for post-emergence).
(§3) The test plants are then grown on, in a glasshouse (greenhouse) under controlled conditions (at either 24/18° C. or 20/16° C. (day/night) as mentioned above; 16 hours light; 65% humidity) and are watered twice daily. Either 15 days after application of the herbicide (15 DAA) (for post-emergence), or 20 days after application of the herbicide (20 DAA) (for pre-emergence), the test plants are evaluated visually, and an assessed percentage phytotoxicity score is given for each herbicidal application on each plant species (where 100%=total damage to plant; 0%=no damage to plant).
(§4) Cool climate (“cool season”) grassy monocotyledonous weeds: Alopecurus myosuroides (ALOMY), Avena fatua (AVEFA), Lolium perenne (LOLPE).

Avena fatua (AVEFA) = test: as above; conditions: 480 h, 20 DAA, read-out: percentage phytotoxicity AVEFA
Method: as §1, §2, §3, §4

Lolium perenne (LOLPE) = test: as above; conditions: 480 h, 20 DAA, read-out: percentage phytotoxicity LOLPE
Method: as §1, §2, §3, §4

[2] = test system: Glycine max (GLXMA, soybean); test: as above; conditions: 480 h, 20 DAA, read-out: percentage phytotoxicity GLXMA
Method: as §1, §2, §3
Warm climate crop plants: Glycine max (GLXMA, soybean).

Setaria faberi (SETFA) [3] = test: Test 1A glasshouse assay for herbicidal activity, pre-emergence; conditions: 312 h, evaluated after 13 days, read-out: percentage phytotoxicity SETFA
Summary of the method: (§5)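 Pre-em: spray 1 d after sowing; post-em: spray after 8 d cultivation. Formulation in acetone/water (50:50), 0.5% Tween 20. Glasshouse 24/16 °C d/n, 14 h light, 65% humidity. Readout: visual % damage at 13 d.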

[4] = test system: Alopecurus myosuroides (ALOMY); test: as above; conditions: 312 h, evaluated after 13 days, read-out: percentage phytotoxicity ALOMY
Summary of the method: as §5

[5] = test system: Amaranthus retroflexus (AMARE); test: as above; conditions: 312 h, evaluated after 13 days, read-out: percentage phytotoxicity AMARE
Summary of the method: as §5

[6] = test system: Echinochloa crus-galli (ECHCG); test: as above; conditions: 312 h, evaluated after 13 days, read-out: percentage phytotoxicity ECHCG
Summary of the method: as §5

Setaria faberi (SETFA) [7] = test: Test 1B glasshouse assay for herbicidal activity, pre-emergence; conditions: 480 h, 20 DAA, read-out: percentage phytotoxicity SETFA
Method: as §1, §2, §3
(§6) Warm climate (“warm season”) grassy monocotyledonous weeds: Setaria faberi (SETFA), SORVU (Sorghum bicolor (L.) Moench ssp. Bicolor, or Sorghum vulgare Pers.), Digitaria sanguinalis (DIGSA), Echinochloa crus-galli (ECHCG), and Brachiaria plantaginea (BRAPL).

[8] = test system: SORVU (Sorghum bicolor (L.) Moench ssp. Bicolor, or Sorghum vulgare Pers.); test: as above; conditions: 480 h, 20 DAA, read-out: percentage phytotoxicity SORVU
Method: as §1, §2, §3, §6

[9] = test system: Digitaria sanguinalis (DIGSA); test: as above; conditions: 480 h, 20 DAA, read-out: percentage phytotoxicity DIGSA
Method: as §1, §2, §3, §6

[10] = test system: Echinochloa crus-galli (ECHCG); test: as above; conditions: 480 h, 20 DAA, read-out: percentage phytotoxicity ECHCG
Method: as §1, §2, §3, §6

[11] = test system: Beta vulgaris (BEAVA, sugar beet); test: as above; conditions: 480 h, 20 DAA, read-out: percentage phytotoxicity BEAVA
Method: as §1, §2, §3
(§7) Cool climate crop plants: Triticum aestivum (TRZAW, winter wheat), Brassica napus (BRSNN, rape, also called oilseed rape or rapeseed), Beta vulgaris (BEAVA, sugar beet).

[12] = test system: Brassica napus (BRSNN, rape); test: Test 1B glasshouse assay for herbicidal activity, post-emergence; conditions: 360 h; for plant injury at 30 g/ha: 30 g/ha application rate; for plant injury at 60 g/ha: 60 g/ha application rate; for plant injury at 125 g/ha: 125 g/ha application rate
Method: as §1, §2, §3, §7

[13] = test system: Beta vulgaris (BEAVA, sugar beet); test: as above; conditions: 360 h; for plant injury at 30 g/ha: 30 g/ha application rate; for plant injury at 60 g/ha: 60 g/ha application rate; for plant injury at 125 g/ha: 125 g/ha application rate
Method: as §1, §2, §3, §7

[14] = test system: Triticum aestivum (TRZAW, winter wheat); test: as above; conditions: 360 h; for plant injury at 30 g/ha: 30 g/ha application rate; for plant injury at 60 g/ha: 60 g/ha application rate; for plant injury at 125 g/ha: 125 g/ha application rate
Method: as §1, §2, §3, §7

Compound	pest or weed control at 250 g/ha (Setaria faberi (SETFA) [3]) [%]	pest or weed control at 250 g/ha [4] [%]	pest or weed control at 250 g/ha [5] [%]	pest or weed control at 250 g/ha [6] [%]	plant injury at 30 g/ha [12] [%]	plant injury at 125 g/ha [12] [%]	plant injury at 30 g/ha [13] [%]	plant injury at 125 g/ha [13] [%]	plant injury at 30 g/ha [14] [%]	plant injury at 125 g/ha [14] [%]	pest or weed control at 250 g/ha [1] [%]	pest or weed control at 250 g/ha (Avena fatua (AVEFA)) [%]	pest or weed control at 250 g/ha (Lolium perenne (LOLPE)) [%]	plant injury at 250 g/ha [2] [%]	pest or weed control at 250 g/ha (Setaria faberi (SETFA) [7]) [%]	pest or weed control at 250 g/ha [8] [%]	pest or weed control at 250 g/ha [9] [%]	pest or weed control at 250 g/ha [10] [%]	plant injury at 250 g/ha [11] [%]	other results
CC#Cc1cc(C)c(C2C(=O)C3CCC(C3)C2=O)c(C)c1 (stereo not shown) [Compound A-5]	90	100	0	100	70	80	40	30	30	70	–	–	–	–	–	–	–	–	–	pest or weed control at 500 g/ha [1]: 80%; pest or weed control at 500 g/ha (Avena fatua (AVEFA)): 40%; pest or weed control at 500 g/ha (Lolium perenne (LOLPE)): 100%; plant injury at 500 g/ha [2]: 0%; pest or weed control at 500 g/ha (Setaria faberi (SETFA) [7]): 90%; pest or weed control at 500 g/ha [8]: 90%; pest or weed control at 500 g/ha [9]: 100%; pest or weed control at 500 g/ha [10]: 100%; plant injury at 500 g/ha [11]: 0%; plant injury at 60 g/ha [12]: 70%; plant injury at 500 g/ha ([12]; 500 g/ha application rate): 80%; plant injury at 60 g/ha [13]: 40%; plant injury at 500 g/ha ([13]; 500 g/ha application rate): 30%; plant injury at 60 g/ha [14]: 30%; plant injury at 500 g/ha ([14]; 500 g/ha application rate): 80%
CC#Cc1ccc(C2C(=O)C3CCC(C3)C2=O)c(C)c1 (single isomer, unassigned) [Compound A-2]	70	90	0	100	–	–	–	–	–	–	–	–	–	–	–	–	–	–	–	pest or weed control at 500 g/ha [1]: 100%; pest or weed control at 500 g/ha (Avena fatua (AVEFA)): 80%; pest or weed control at 500 g/ha (Lolium perenne (LOLPE)): 100%; plant injury at 500 g/ha [2]: 0%; pest or weed control at 500 g/ha (Setaria faberi (SETFA) [7]): 90%; pest or weed control at 500 g/ha [8]: 80%; pest or weed control at 500 g/ha [9]: 100%; pest or weed control at 500 g/ha [10]: 100%; plant injury at 500 g/ha [11]: 0%; plant injury at 60 g/ha [12]: 70%; plant injury at 60 g/ha [13]: 10%; plant injury at 60 g/ha [14]: 80%
CC#Cc1cc(C)c(C2=C(OC(=O)OC)CC(c3ccccn3)CC2=O)c(C)c1 (stereo not shown) [Compound A-14]	100	100	70	100	60	70	30	40	60	80	80	70	100	20	90	80	100	80	30	–
CC#Cc1cc(Cl)c(C2C(=O)C3CCC(C3)C2=O)c(OC)c1 (stereo not shown) [Compound A-12]	100	100	0	100	60	80	0	20	40	60	60	50	100	40	100	90	100	100	10	pest or weed control at 62.5 g/ha (Setaria faberi (SETFA) [3]; 62.5 g/ha): 100%; pest or weed control at 62.5 g/ha ([4]; 62.5 g/ha): 90%; pest or weed control at 62.5 g/ha ([5]; 62.5 g/ha): 0%; pest or weed control at 62.5 g/ha ([6]; 62.5 g/ha): 90%
CC#Cc1cc(C)c(C2C(=O)CC(c3ccccn3)CC2=O)c(C)c1 (stereo not shown) [Compound A-13]	100	100	80	100	–	70	–	20	–	30	80	30	100	20	80	80	100	90	10	pest or weed control at 30 g/ha (Setaria faberi (SETFA) [3]; 30 g/ha): 70%; pest or weed control at 30 g/ha ([4]; 30 g/ha): 70%; pest or weed control at 30 g/ha ([5]; 30 g/ha): 100%; pest or weed control at 30 g/ha ([6]; 30 g/ha): 100%
Cc1cc(C#CCl)cc(C)c1C1C(=O)CC(CC2CCOCC2)CC1=O (stereo not shown) [Compound A-8]	90	90	90	100	70	–	30	–	50	–	–	–	–	–	–	–	–	–	–	–
CC#Cc1cc(C)c(C2C(=O)CC(CCSC)CC2=O)c(C)c1 (stereo not shown) [Compound A-21, 2-(2,6-Dimethyl-4-prop-1-ynyl-phenyl)-5-(2-methylsulfanyl-ethyl)cyclohexane-1,3-dione]	100	100	90	100	–	–	–	–	–	–	–	–	–	–	–	–	–	–	–	–
CC#Cc1cc(Cl)c(C2C(=O)CC3(CCOCC3)CC2=O)c(OC)c1 [Compound A-20, 9-(2-Chloro-6-methoxy-4-prop-1-ynyl-phenyl)-3-oxa-spiro[5.5]undecane-8,10-dione]	100	100	90	100	–	–	–	–	–	–	–	–	–	–	–	–	–	–	–	–
